Key:
[1] = test system: rats with cerebral ischemic reperfusion injury; assay: Cerebral ischemic reperfusion (MCAO, suture method) rat model; type: in vivo; conditions: for Relative cerebral infarction volume(%): 40 mg/kg i.v. 30 min before and 12 h after reperfusion, TTC
[2] = test system: permanent cerebral ischemia model rats; assay: Permanent cerebral ischemia (MCAO, suture method) rat model; conditions: for Fas average gray scale: gray scale inversely proportional to expression; for Relative cerebral infarction volume(%): 40 mg/kg i.v. 30 min before insertion of thread and 12 h after embolism, TTC
[3] = 40 mg/kg i.v., brain sections, TUNEL

SMILES	Relative cerebral infarct volume (%) ([1]; edaravone 3 mg/kg, 24 h after reperfusion)	Relative cerebral infarct volume (%) ([2]; edaravone 3 mg/kg, 24 h after embolism)	Fas average gray scale ([2]; edaravone 3 mg/kg, brain sections)	TNF-α content ([2]; edaravone 3 mg/kg, brain tissue homogenate)	Relative cerebral infarction volume(%) ([1]; 24 h after reperfusion)	Number of apoptotic cells [1, 3]	Fas average gray scale ([1]; 40 mg/kg i.v., brain sections, immunohistochemistry, gray scale inversely proportional to expression)	Relative cerebral infarction volume(%) ([2]; 24 h after embolism)	Number of apoptotic cells [2, 3]	Fas average gray scale ([2]; 40 mg/kg i.v., brain sections, immunohistochemistry)
CC1=NN(c2ccccc2)C(=O)C1 [Edaravone injection, edaravone]	29.31 ± 3.95 %	31.29 ± 4.02 %	138.95 ± 5.50	5.53 ± 0.54 ng/mL	–	–	–	–	–	–
CC(=O)Oc1c(C(C)C)cc(-c2cc(C(C)C)c(O)c(C(C)C)c2)cc1C(C)C [Example 2, 4′-hydroxy-3,3′,5,5′-tetraisopropylbiphenyl-4-acetate]	–	–	–	–	18.71 ± 4.69 %	19.14 ± 4.24	162.47 ± 3.96	24.71 ± 3.76 %	20.41 ± 5.02	158.28 ± 6.66
CC(=O)Oc1c(C(C)C)cc(-c2cc(C(C)C)c(OC(C)=O)c(C(C)C)c2)cc1C(C)C [Example 3, 3,3′,5,5′-tetraisopropylbiphenyl-4′-diacetate]	–	–	–	–	23.22 ± 3.12 %	–	–	27.92 ± 4.51 %	–	–
